Measured values taken from patent US20240182445A1 (ONO PHARMACEUTICAL CO., LTD., priority 2019, published 2024).

biological target: T1, human TREK-1 (Homo sapiens, UniProt O95069); experiment: TREK-1 Thallium (Tl+) flux assay, Method 1; format: cell-based; conditions: TREK-1 Thallium (Tl+) flux assay, Method 1
T1 construct: expressed in transfected cells
T1 sequence (O95069 1-426): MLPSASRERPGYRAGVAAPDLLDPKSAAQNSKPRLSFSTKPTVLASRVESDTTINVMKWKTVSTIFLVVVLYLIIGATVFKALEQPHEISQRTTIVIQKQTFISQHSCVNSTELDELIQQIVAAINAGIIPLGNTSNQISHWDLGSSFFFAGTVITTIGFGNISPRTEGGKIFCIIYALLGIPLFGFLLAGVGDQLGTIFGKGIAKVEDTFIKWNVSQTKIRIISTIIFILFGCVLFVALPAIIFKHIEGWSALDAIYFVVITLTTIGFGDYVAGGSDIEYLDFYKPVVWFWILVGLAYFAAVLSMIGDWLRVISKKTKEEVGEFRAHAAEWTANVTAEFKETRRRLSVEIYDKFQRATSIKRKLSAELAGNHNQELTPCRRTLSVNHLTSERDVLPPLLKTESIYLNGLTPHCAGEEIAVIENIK
Protocol: The term “thallium flux assay” herein refers to a fluorescence-based assay used to monitor the activity of TREK channels. Thallium is a congener of potassium that readily fluxes through the pore of TREK channels. Thallium flux is measured using a commercially available, thallium-sensitive fluorescent dye called Thallos. The detail method is described below.
CHO-K1 cells stably expressing human TREK-1 were plated in 384-well plates, cultured overnight, loaded with Thallos dye the following day. Test compounds or control compound (tert-butyl (3-((4-(benzyloxy)-2-methylphenyl)carbamoyl)-4-chlorophenyl)carbamate) or 0.3% DMSO (vehicle control) which were prepared on separate plates were added to the cell plates and incubated for 10 min, and then the cells were treated with thallium stimulus buffer to initiate thallium flux. To measure the efficacy and potency of test compounds, the change in fluorescence intensity (ΔRatio) and % inhibition were calculated using the following equations:
ΔRatio=(fluorescence intensity at 25 seconds after thallium addition)/(average of fluorescent intensity before thallium addition)

| IC50 [nM] | Structure (SMILES) |
| --- | --- |
| 4460 | CC(=O)N1CCC(n2ncc(Cl)c2C(=O)Nc2ncc(-c3cnc4ccccc4c3)cc2C)CC1 [Compound 422, 1-(1-acetylpiperidin-4-yl)-4-chloro-N-(3-methyl-5-(quinolin-3-yl)pyridin-2-yl)-1H-pyrazole-5-carboxamide] |
| 3530 | Cc1cc(-c2cnn(-c3ccccc3)c2)cnc1NC(=O)c1c(Cl)cnn1C1CCN(C(=O)OC(C)(C)C)CC1 [Compound 413, tert-butyl 4-(4-chloro-5-((3-methyl-5-(1-phenyl-1H-pyrazol-4-yl)pyridin-2-yl)carbamoyl)-1H-pyrazol-1-yl)piperidine-1-carboxylate] |
| 1270 | CC(=O)N1CCC(n2ncc(Cl)c2C(=O)Nc2ncc(OCc3ccccc3)cc2C)CC1 [Compound 393, 1-(1-acetylpiperidin-4-yl)-N-(5-(benzyloxy)-3-methylpyridin-2-yl)-4-chloro-1H-pyrazole-5-carboxamide] |
| 2840 | Cc1cc(OCc2ccccc2)ccc1NC(=O)c1c(Cl)cnn1C1CCN(C(=O)C(C)C)CC1 [Compound 411, N-(4-(benzyloxy)-2-methylphenyl)-4-chloro-1-(1-isobutyrylpiperidin-4-yl)-1H-pyrazole-5-carboxamide] |

same assay, conditions: TREK-1 Thallium (Tl+) flux assay; no *^12 (Method 2) mark on these rows

| Structure (SMILES) | IC50 [nM] |
| --- | --- |
| Cc1cc(C#Cc2ccccc2)cnc1NC(=O)c1c(Cl)cnn1C[C@@H]1CCN(C(=O)C(C)C)C[C@H]1F [Compound 222, 4-chloro-1-(((3S,4S)-3-fluoro-1-isobutyrylpiperidin-4-yl)methyl)-N-(3-methyl-5-(phenylethynyl)pyridin-2-yl)-1H-pyrazole-5-carboxamide] | 340 |
| Cc1cc(C#Cc2ccccc2)cnc1NC(=O)c1c(Cl)cnn1C[C@H]1COCCO1 [Compound 211, (S)-1-((1,4-dioxan-2-yl)methyl)-4-chloro-N-(3-methyl-5-(phenylethynyl)pyridin-2-yl)-1H-pyrazole-5-carboxamide] | 320 |
| Cc1cc(C#Cc2ccccc2F)cnc1NC(=O)c1c(Cl)cnn1CCC1CCN(C(=O)C2CC2)CC1 [Compound 226, 4-chloro-1-(2-(1-(cyclopropanecarbonyl)piperidin-4-yl)ethyl)-N-(5-((2-fluorophenyl)ethynyl)-3-methylpyridin-2-yl)-1H-pyrazole-5-carboxamide] | 350 |
| CC(=O)N1CCC(n2ncc(Cl)c2C(=O)Nc2ncc(C#Cc3ccccc3)cc2C)C1 (stereo not shown) [Compound 238, 1-(1-acetylpyrrolidin-3-yl)-4-chloro-N-(3-methyl-5-(phenylethynyl)pyridin-2-yl)-1H-pyrazole-5-carboxamide] | 370 |
| N#CCCCn1ncc(Cl)c1C(=O)Nc1c(F)cc(C#Cc2ccccc2)cc1F [Compound 253, 4-chloro-1-(3-cyanopropyl)-N-(2,6-difluoro-4-(phenylethynyl)phenyl)-1H-pyrazole-5-carboxamide] | 410 |
| Cc1cc(C#Cc2ccccc2)cnc1NC(=O)c1c(Cl)cnn1C[C@@H]1CCN(C(=O)OC(C)(C)C)C[C@H]1F [Compound 241, tert-butyl (3S,4S)-4-((4-chloro-5-((3-methyl-5-(phenylethynyl)pyridin-2-yl)carbamoyl)-1H-pyrazol-1-yl)methyl)-3-fluoropiperidine-1-carboxylate] | 370 |
| CC(C)(C)OC(=O)N1CC(n2ncc(Cl)c2C(=O)Nc2ncc(C#Cc3ccccc3)cc2F)C1 [Compound 243, tert-butyl 3-(4-chloro-5-((3-fluoro-5-(phenylethynyl)pyridin-2-yl)carbamoyl)-1H-pyrazol-1-yl)azetidine-1-carboxylate] | 380 |
| Cc1cc(C#Cc2ccccc2)cnc1NC(=O)c1c(Cl)cnn1CC1(C#N)CCCC1 [Compound 242, 4-chloro-1-((1-cyanocyclopentyl)methyl)-N-(3-methyl-5-(phenylethynyl)pyridin-2-yl)-1H-pyrazole-5-carboxamide] | 380 |
| Cc1cc(C#Cc2ccccc2)cnc1NC(=O)c1c(Cl)cnn1CC1CC1 [Compound 278, 4-chloro-1-(cyclopropylmethyl)-N-(3-methyl-5-(phenylethynyl)pyridin-2-yl)-1H-pyrazole-5-carboxamide] | 490 |
| O=C(Nc1ncc(C#Cc2ccc(F)cc2)cc1F)c1c(Cl)cnn1[C@@H]1CCN(C(=O)C2COCCO2)C[C@H]1F (stereo partly drawn) [Compound 235, 1-((3R,4R)-1-(1,4-dioxane-2-carbonyl)-3-fluoropiperidin-4-yl)-4-chloro-N-(3-fluoro-5-((4-fluorophenyl)ethynyl)pyridin-2-yl)-1H-pyrazole-5-carboxamide] | 360 |

Further lines, results first:

| IC50 [nM] | Structure (SMILES) |
| --- | --- |
| 630 | Cc1cc(C#Cc2ccc(F)cc2)cnc1NC(=O)c1c(Cl)cnn1[C@H]1CCOC1 [Compound 322, (S)-4-chloro-N-(5-((4-fluorophenyl)ethynyl)-3-methylpyridin-2-yl)-1-(tetrahydrofuran-3-yl)-1H-pyrazole-5-carboxamide] |
| 750 | Cc1cc(C#Cc2ccc(F)cc2)cnc1NC(=O)c1c(Cl)nn(C)c1-c1ccc2c(cnn2C)c1 [Compound 342, 3-chloro-N-(5-((4-fluorophenyl)ethynyl)-3-methylpyridin-2-yl)-1-methyl-5-(1-methyl-1H-indazol-5-yl)-1H-pyrazole-4-carboxamide] |
| 770 | Cc1cc(C#Cc2ccccc2)cnc1NC(=O)c1c(Cl)cnn1CC1CCCO1 (stereo not shown) [Compound 345, 4-chloro-N-(3-methyl-5-(phenylethynyl)pyridin-2-yl)-1-((tetrahydrofuran-2-yl)methyl)-1H-pyrazole-5-carboxamide] |
| 5680 | CC(=O)N1CCC(n2ncc(Cl)c2C(=O)Nc2cnc(C#Cc3ccccc3)c(F)c2)CC1 [Compound 378, 1-(1-acetylpiperidin-4-yl)-4-chloro-N-(5-fluoro-6-(phenylethynyl)pyridin-3-yl)-1H-pyrazole-5-carboxamide] |
| 550 | Cc1cc(C#Cc2ccc(F)cc2)cnc1NC(=O)c1c(Cl)cnn1CC1(F)CCN(C(=O)C2CC2)CC1 [Compound 302, 4-chloro-1-((1-(cyclopropanecarbonyl)-4-fluoropiperidin-4-yl)methyl)-N-(5-((4-fluorophenyl)ethynyl)-3-methylpyridin-2-yl)-1H-pyrazole-5-carboxamide] |
| 730 | Cc1cc(C#Cc2ccccc2)cnc1NC(=O)c1c(Cl)cnn1C[C@@H]1COCCO1 [Compound 338, (R)-1-((1,4-dioxan-2-yl)methyl)-4-chloro-N-(3-methyl-5-(phenylethynyl)pyridin-2-yl)-1H-pyrazole-5-carboxamide] |

same assay, conditions: TREK-1 Thallium (Tl+) flux assay; values without footnote *12 are Method 1

| IC50 [nM] | Structure (SMILES) |
| --- | --- |
| 130 | CC(C)C(=O)N[C@H]1CC[C@@H](n2ncc(Cl)c2C(=O)Nc2ncc(C#Cc3ccc(F)cc3)cc2F)CC1 [Compound 45, 4-chloro-N-(3-fluoro-5-((4-fluorophenyl)ethynyl)pyridin-2-yl)-1-(cis-4-isobutyramidocyclohexyl)-1H-pyrazole-5-carboxamide] |
| 40 | CC(=O)N1CCC(n2ncc(Br)c2C(=O)Nc2ncc(C#Cc3ccccc3)cc2C)CC1 [Compound 17, 1-(1-acetylpiperidin-4-yl)-4-bromo-N-(3-methyl-5-(phenylethynyl)pyridin-2-yl)-1H-pyrazole-5-carboxamide] |
| 140 | O=C(Nc1ncc(C#Cc2cccc(F)c2)cc1F)c1c(Cl)cnn1CC1CCOCC1 [Compound 50, 4-chloro-N-(3-fluoro-5-((3-fluorophenyl)ethynyl)pyridin-2-yl)-1-((tetrahydro-2H-pyran-4-yl)methyl)-1H-pyrazole-5-carboxamide] |
| 140 | O=C(Nc1ncc(C#Cc2ccccc2)cc1F)c1c(Cl)cnn1C1CCN(C(=O)CC(F)(F)F)CC1 [Compound 55, 4-chloro-N-(3-fluoro-5-(phenylethynyl)pyridin-2-yl)-1-(1-(3,3,3-trifluoropropanoyl)piperidin-4-yl)-1H-pyrazole-5-carboxamide] |
| 260 | O=C(Nc1c(F)cc(C#Cc2ccccc2)cc1F)c1c(Cl)cnn1C[C@H]1CCOC1 [Compound 162, (R)-4-chloro-N-(2,6-difluoro-4-(phenylethynyl)phenyl)-1-((tetrahydrofuran-3-yl)methyl)-1H-pyrazole-5-carboxamide] |
| 60 | CC(=O)N1CCC(n2ncc(Cl)c2C(=O)Nc2ncc(C#Cc3cccs3)cc2F)CC1 [Compound 18, 1-(1-acetylpiperidin-4-yl)-4-chloro-N-(3-fluoro-5-(thiophen-2-ylethynyl)pyridin-2-yl)-1H-pyrazole-5-carboxamide] |
| 260 | Cc1cc(C#Cc2ccccc2)cnc1NC(=O)c1c(Cl)cnn1C1CCN(S(C)(=O)=O)CC1 [Compound 163, 4-chloro-N-(3-methyl-5-(phenylethynyl)pyridin-2-yl)-1-(1-(methylsulfonyl)piperidin-4-yl)-1H-pyrazole-5-carboxamide] |
| 170 | Cc1cc(C#Cc2ccccc2)cnc1NC(=O)c1c(Cl)cnn1C1CN(C(=O)C2CC2)C1 [Compound 87, 4-chloro-1-(1-(cyclopropanecarbonyl)azetidin-3-yl)-N-(3-methyl-5-(phenylethynyl)pyridin-2-yl)-1H-pyrazole-5-carboxamide] |
